In patent US20030232102A1, “Total glycosides of paeony, method to prepare the same and uses thereof” (priority 2001, published 2003):

Key:
[1] = system: patients with rheumatoid arthritis; experiment: Phase II clinical study: adverse (reverse) drug effects and drug toleration; format: in vivo, human
Procedure: (§1) It was a multiple-centered, randomized, parallel, positive controlled Phrase II clinical study.
The eneral condition of patients was evaluated on each visit and follow-up survey. Patients were inquired of symptoms and signs into a 26-item list of side effect. Once a possible side effect occurred, the relevant information as time, severity, frequency, duration, method used in release and its result were recorded by the doctor. […] A second disease occurred during the study was not counted in as a side effect. Index of overall side-effect is as below:
2=upset of medium severity, interfere with the daily life of patient
3=sever unwell, obviously affect a normal daily life and may need a bed rest.
4=life threatening side effect
Investigators should score individually on drug toleration in each patient after the test base on the following criteria:
0=bear sever side effect(s) and need to halt the test
1=side effects(s) of medium severity, relevant treatments is adopted.
2=mild side effect(s), no treatment was needed

[2] = system: patients with rheumatoid arthritis; experiment: Phase II clinical study: laboratory tests and immune system perimeters; format: in vivo, human; set-up: ESR / CRP / RF / Ig A / Ig G / Laboratory blood tests: Hg / Laboratory blood tests: WBC / Laboratory blood tests: BP / Laboratory blood tests: Cr / Laboratory blood tests: BUN: unit not given here; conditions: for Laboratory blood tests: Hg / Laboratory blood tests: WBC / Laboratory blood tests: BP / Laboratory blood tests: BUN / Laboratory blood tests: Cr / Laboratory blood tests: GPT: overall group
Text: as §1
10) Routine blood and urine exam: Hemoglobin, platelet count, biochemical serum test and routine urine test
11) Blood Sedimentation (Norm. M: 15 mm/hr F: 20 mm/hr)
12) Serum Rheumatoid Factor (Method: Latex Agglutination Test, LAT): The maximum titer value were required for positive reaction patients. All centers use the same standard agents in one product batch.
13) C-reactive protein (quantitative method): All centers use the same standard agents in one product batch.

[3] = double-blind, 4 weeks, column 1
[4] = double-blind, 12 weeks, column 1
[5] = double-blind, 12 weeks, column 2
[6] = overall group, 4 weeks, column 1
[7] = overall group, 4 weeks, column 2
[8] = overall group, 4 weeks, column 3
[9] = overall group, 8 weeks, column 1
[10] = overall group, 8 weeks, column 2
[11] = overall group, 8 weeks, column 3
[12] = overall group, 12 weeks, column 1
[13] = overall group, 12 weeks, column 2
[14] = overall group, 24 weeks, column 1
[15] = overall group, 24 weeks, column 2
[16] = 4 weeks (row order of Table 65)
[17] = 8 weeks (row order of Table 65)
[18] = 12 weeks (row order of Table 65)
[19] = 24 weeks (row order of Table 65)
[20] = 4 weeks (row order of Table 67)
[21] = 8 weeks (row order of Table 67)
[22] = 12 weeks (row order of Table 67)
[23] = 24 weeks (row order of Table 67)
[24] = period of treatment 0 (row order of Table 67)
[25] = period of treatment 0 (row order of Table 65)

Laboratory blood tests: Hg ([2]; 4 weeks): 10.96 ± 3.65
Laboratory blood tests: WBC ([2]; 4 weeks): 7.47 ± 2.09
Laboratory blood tests: BP [2, 20]: 94.28 ± 31.42
Laboratory blood tests: BUN [2, 20]: 3.32 ± 1.11
Laboratory blood tests: Cr [2, 20]: 82.82 ± 27.64
Laboratory blood tests: GPT [2, 20]: Norm.
Laboratory blood tests: Hg ([2]; 8 weeks): 9.26 ± 3.09
Laboratory blood tests: WBC ([2]; 8 weeks): 8.47 ± 2.82
Laboratory blood tests: BP [2, 21]: 108.73 ± 36.21
Laboratory blood tests: BUN [2, 21]: 1.97 ± 0.65
Laboratory blood tests: Cr [2, 21]: 98.89 ± 32.93
Laboratory blood tests: GPT [2, 21]: Norm.
Laboratory blood tests: Hg ([2]; 12 weeks): 9.24 ± 2.98
Laboratory blood tests: WBC ([2]; 12 weeks): 8.42 ± 2.57
Laboratory blood tests: BP [2, 22]: 110.66 ± 37.48
Laboratory blood tests: BUN [2, 22]: 1.82 ± 0.47
Laboratory blood tests: Cr [2, 22]: 102.03 ± 36.86
Laboratory blood tests: GPT [2, 22]: Norm.
Laboratory blood tests: Hg ([2]; 24 weeks): 10.78 ± 3.10
Laboratory blood tests: WBC ([2]; 24 weeks): 7.28 ± 2.67
Laboratory blood tests: BP [2, 23]: 168.48 ± 30.78
Laboratory blood tests: BUN [2, 23]: 3.38 ± 1.01
Laboratory blood tests: Cr [2, 23]: 78.66 ± 26.42
Laboratory blood tests: GPT [2, 23]: Norm.
Laboratory blood tests: Hg ([2]; period of treatment 0): 11.28 ± 3.72
Laboratory blood tests: WBC ([2]; period of treatment 0): 7.96 ± 2.61
Laboratory blood tests: BP [2, 24]: 98.97 ± 32.86
Laboratory blood tests: BUN [2, 24]: 3.96 ± 1.32
Laboratory blood tests: Cr [2, 24]: 74.86 ± 28.28
Laboratory blood tests: GPT [2, 24]: Norm.
Structure (SMILES): CN(Cc1cnc2nc(N)nc(N)c2n1)c1ccc(C(=O)N[C@@H](CCC(=O)O)C(=O)O)cc1 [MTX, Methotrexate]
Events of reverse drug effects: Dizziness [1, 3]: 3
Events of reverse drug effects: Headache [1, 3]: 1
Events of reverse drug effects: Bad appetite [1, 4]: 2
Events of reverse drug effects: Dizziness [1, 4]: 1
Events of reverse drug effects: Frequency of micturition [1, 4]: 1
Events of reverse drug effects: Headache [1, 4]: 1
Events of reverse drug effects: Lethargy [1, 4]: 1
Events of reverse drug effects: Nausea [1, 4]: 4
Events of reverse drug effects: Bad appetite [1, 5]: 2
Events of reverse drug effects: Insomnia [1, 5]: 1
Events of reverse drug effects: Nausea [1, 5]: 4
Events of reverse drug effects: Abd distension [1, 6]: 7
Events of reverse drug effects: Bad appetite [1, 6]: 27
Events of reverse drug effects: Burning heart [1, 6]: 1
Events of reverse drug effects: Constipation [1, 6]: 3
Events of reverse drug effects: Diarrhea [1, 6]: 1
Events of reverse drug effects: Dizziness [1, 6]: 6
Events of reverse drug effects: Headache [1, 6]: 1
Events of reverse drug effects: Lethargy [1, 6]: 1
Events of reverse drug effects: Nausea [1, 6]: 14
Events of reverse drug effects: Palpitation [1, 6]: 3
Events of reverse drug effects: Stomachache [1, 6]: 1
Events of reverse drug effects: Stomatitis [1, 6]: 2
Events of reverse drug effects: Vomiting [1, 6]: 3
Events of reverse drug effects: Abd distension [1, 7]: 5
Events of reverse drug effects: Bad appetite [1, 7]: 3
Events of reverse drug effects: Diarrhea [1, 7]: 1
Events of reverse drug effects: Headache [1, 7]: 1
Events of reverse drug effects: Nausea [1, 7]: 8
Events of reverse drug effects: Stomachache [1, 7]: 1
Events of reverse drug effects: Burning heart [1, 8]: 2
Events of reverse drug effects: Stomachache [1, 8]: 1
Events of reverse drug effects: Abd distension [1, 9]: 11
Events of reverse drug effects: Bad appetite [1, 9]: 28
Events of reverse drug effects: Burning heart [1, 9]: 3
Events of reverse drug effects: Constipation [1, 9]: 3
Events of reverse drug effects: Diarrhea [1, 9]: 1
Events of reverse drug effects: Dizziness [1, 9]: 4
Events of reverse drug effects: Headache [1, 9]: 2
Events of reverse drug effects: Insomnia [1, 9]: 5
Events of reverse drug effects: Lethargy [1, 9]: 2
Events of reverse drug effects: Nausea [1, 9]: 16
Events of reverse drug effects: Palpitation [1, 9]: 3
Events of reverse drug effects: Stomatitis [1, 9]: 9
Events of reverse drug effects: Vomiting [1, 9]: 2
Events of reverse drug effects: Abd distension [1, 10]: 4
Events of reverse drug effects: Bad appetite [1, 10]: 5
Events of reverse drug effects: Burning heart [1, 10]: 1
Events of reverse drug effects: Headache [1, 10]: 1
Events of reverse drug effects: Nausea [1, 10]: 7
Events of reverse drug effects: Skin rash [1, 10]: 1
Events of reverse drug effects: Stomatitis [1, 10]: 1
Events of reverse drug effects: Vomiting [1, 10]: 1
Events of reverse drug effects: Abd distension [1, 11]: 1
Events of reverse drug effects: Bad appetite [1, 11]: 1
Events of reverse drug effects: Burning heart [1, 11]: 1
Events of reverse drug effects: Constipation [1, 11]: 1
Events of reverse drug effects: Abd distension [1, 12]: 15
Events of reverse drug effects: Bad appetite [1, 12]: 35
Events of reverse drug effects: Burning heart [1, 12]: 2
Events of reverse drug effects: Constipation [1, 12]: 2
Events of reverse drug effects: Diarrhea [1, 12]: 1
Events of reverse drug effects: Dizziness [1, 12]: 4
Events of reverse drug effects: Headache [1, 12]: 2
Events of reverse drug effects: Insomnia [1, 12]: 5
Events of reverse drug effects: Lethargy [1, 12]: 1
Events of reverse drug effects: Nausea [1, 12]: 25
Events of reverse drug effects: Palpitation [1, 12]: 2
Events of reverse drug effects: Skin rash [1, 12]: 1
Events of reverse drug effects: Stomatitis [1, 12]: 9
Events of reverse drug effects: Vomiting [1, 12]: 3
Events of reverse drug effects: Abd distension [1, 13]: 4
Events of reverse drug effects: Bad appetite [1, 13]: 3
Events of reverse drug effects: Headache [1, 13]: 1
Events of reverse drug effects: Insomnia [1, 13]: 1
Events of reverse drug effects: Nausea [1, 13]: 10
Events of reverse drug effects: Stomatitis [1, 13]: 1
Events of reverse drug effects: Burning heart ([1]; overall group, 12 weeks, column 3): 1
Events of reverse drug effects: Bad appetite [1, 14]: 3
Events of reverse drug effects: Dizziness [1, 14]: 1
Events of reverse drug effects: Headache [1, 14]: 2
Events of reverse drug effects: Insomnia [1, 14]: 1
Events of reverse drug effects: Nausea [1, 14]: 7
Events of reverse drug effects: Vomiting [1, 14]: 2
Events of reverse drug effects: Insomnia [1, 15]: 1
Events of reverse drug effects: Nausea [1, 15]: 2
Events of reverse drug effects: Vomiting [1, 15]: 1
CRP ([2]; 4 weeks): 27.97 ± 21.12
ESR ([2]; 4 weeks): 42.11 ± 38.68
Ig A [2, 16]: 3.64 ± 3.54
Ig G [2, 16]: 17.40 ± 6.59
RF [2, 16]: 1.87 ± 0.62
CRP ([2]; 8 weeks): 25.72 ± 19.42
ESR ([2]; 8 weeks): 44.92 ± 78.36
Ig A [2, 17]: 3.98 ± 3.56
Ig G [2, 17]: 17.62 ± 6.37
Ig M [2, 17]: 2.76 ± 2.24
RF [2, 17]: 1.59 ± 0.61
CRP ([2]; 12 weeks): 22.31 ± 18.91
ESR ([2]; 12 weeks): 29.96 ± 20.48
Ig A [2, 18]: 3.39 ± 3.15
Ig G [2, 18]: 16.47 ± 5.92
RF [2, 18]: 1.72 ± 0.56
CRP ([2]; 24 weeks): 27.12 ± 22.39
ESR ([2]; 24 weeks): 28.66 ± 20.96
Ig A [2, 19]: 2.35 ± 1.55
Ig G [2, 19]: 15.26 ± 6.37
Ig M [2, 19]: 1.57 ± 0.79
RF [2, 19]: 1.74 ± 0.63
CRP ([2]; period of treatment 0): 32.01 ± 22.75
ESR ([2]; period of treatment 0): 47.11 ± 26.19
Ig A [2, 25]: 3.62 ± 3.42
Ig G [2, 25]: 18.13 ± 7.12
RF [2, 25]: 1.93 ± 0.61
